Measured values published in ChEMBL document CHEMBL1201862, “PubChem BioAssay data set” (2004).
Values belong to the molecule of their own block, whether it stands above or below them. Active and inactive are the calls of the source.

Assays:
[1] = biological target: T1, Sentrin-specific protease 6 (Homo sapiens, UniProt Q9GZR1); format: functional;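 also: Luminescence-based dose-response confirmatory assay of SENP6 inhibition, following up an ultra-high-throughput screen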
T1 sequence (Q9GZR1 whole entry): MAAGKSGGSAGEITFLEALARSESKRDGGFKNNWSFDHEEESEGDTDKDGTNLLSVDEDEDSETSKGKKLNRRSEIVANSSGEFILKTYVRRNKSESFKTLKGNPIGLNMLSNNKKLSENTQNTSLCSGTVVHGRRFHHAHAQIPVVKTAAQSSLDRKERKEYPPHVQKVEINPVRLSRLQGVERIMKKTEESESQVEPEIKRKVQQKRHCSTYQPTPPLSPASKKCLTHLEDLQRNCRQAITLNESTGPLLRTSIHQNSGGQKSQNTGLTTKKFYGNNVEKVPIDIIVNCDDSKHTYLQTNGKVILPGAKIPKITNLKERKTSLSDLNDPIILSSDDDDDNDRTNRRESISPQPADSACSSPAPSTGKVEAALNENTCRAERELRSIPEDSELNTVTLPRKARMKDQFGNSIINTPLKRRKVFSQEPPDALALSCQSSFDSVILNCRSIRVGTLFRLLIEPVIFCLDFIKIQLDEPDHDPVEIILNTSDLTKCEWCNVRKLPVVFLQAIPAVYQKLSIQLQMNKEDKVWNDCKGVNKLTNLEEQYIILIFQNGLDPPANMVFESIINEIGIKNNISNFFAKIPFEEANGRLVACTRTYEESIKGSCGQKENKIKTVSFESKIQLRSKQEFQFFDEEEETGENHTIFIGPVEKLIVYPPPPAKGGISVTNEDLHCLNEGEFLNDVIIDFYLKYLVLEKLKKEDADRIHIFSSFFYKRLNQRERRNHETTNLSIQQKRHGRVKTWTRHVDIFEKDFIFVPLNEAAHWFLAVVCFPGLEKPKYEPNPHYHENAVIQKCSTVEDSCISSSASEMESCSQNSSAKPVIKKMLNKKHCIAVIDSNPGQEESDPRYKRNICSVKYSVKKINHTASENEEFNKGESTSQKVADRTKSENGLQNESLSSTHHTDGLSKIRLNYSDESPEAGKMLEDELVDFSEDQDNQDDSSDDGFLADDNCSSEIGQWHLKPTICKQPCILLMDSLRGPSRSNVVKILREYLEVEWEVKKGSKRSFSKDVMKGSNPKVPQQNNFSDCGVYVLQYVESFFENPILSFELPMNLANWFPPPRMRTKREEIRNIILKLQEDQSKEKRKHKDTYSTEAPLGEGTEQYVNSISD

Caspase-9 = Caspase-9 (Homo sapiens, UniProt P55211); experiment: caspase-9 enzyme inhibition, dose response, selectivity assay for caspase-6 inhibitor project, biochemical, fluorescence, plate reader, cherry-picked samples (AID 743293)
Caspase-3 = biological target: T2, Caspase-3 (Homo sapiens, UniProt P42574); experiment: SAR Analysis of small molecule inhibitors of Sentrin-specific proteases (SENPs) using a Caspase-3 Selectivity assay. [Related pubchem assays (depositor defined):AID2540, AID2599, AID434973, AID489001]; format: functional
T2 sequence (P42574 whole entry): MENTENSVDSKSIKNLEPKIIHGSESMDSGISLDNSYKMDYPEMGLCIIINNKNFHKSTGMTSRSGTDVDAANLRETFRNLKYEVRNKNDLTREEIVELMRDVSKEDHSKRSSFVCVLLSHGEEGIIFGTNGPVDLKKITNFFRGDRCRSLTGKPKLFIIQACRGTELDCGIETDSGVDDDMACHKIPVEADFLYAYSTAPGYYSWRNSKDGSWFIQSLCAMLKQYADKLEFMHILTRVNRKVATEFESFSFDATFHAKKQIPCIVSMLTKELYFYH

[2] = biological target: Photoreceptor-specific nuclear receptor (Homo sapiens, UniProt Q9Y5X4); format: functional;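 also: potency for compounds that break the NR2E3 corepressor complex and count as activators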
Chain of Photoreceptor-specific nuclear receptor (Q9Y5X4 whole entry): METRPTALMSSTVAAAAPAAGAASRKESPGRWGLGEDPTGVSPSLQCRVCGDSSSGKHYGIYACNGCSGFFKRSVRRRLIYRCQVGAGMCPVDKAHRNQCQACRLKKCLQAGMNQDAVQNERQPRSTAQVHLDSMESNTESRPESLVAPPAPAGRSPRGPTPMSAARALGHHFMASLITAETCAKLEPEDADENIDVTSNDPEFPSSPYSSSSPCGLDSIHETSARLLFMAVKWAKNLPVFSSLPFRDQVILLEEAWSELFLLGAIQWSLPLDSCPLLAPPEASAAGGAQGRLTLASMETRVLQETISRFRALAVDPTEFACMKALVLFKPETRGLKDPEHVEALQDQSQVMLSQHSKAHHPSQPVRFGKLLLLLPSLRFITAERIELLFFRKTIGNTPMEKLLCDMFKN

[3] = cytotoxicity in HEK-293T cells, dose response, cytotoxicity control for BCR NF-kB inhibitor project, luminescence, B-cell screen hits (AID 489021); format: functional, cell-based;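 also: HEK-293T cells carrying an NF-kB luciferase reporter; cells exposed to compound for about 14 hours before viability readout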
[4] = biological target: Tyrosine-protein kinase JAK3 (Homo sapiens, UniProt P52333); format: functional
[5] = biological target: Tyrosine-protein kinase ITK/TSK (Homo sapiens, UniProt Q08881); format: functional;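 also: affinity for ITK measured as one member of a broad kinase panel profiling binding across the kinome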
[6] = biological target: Interleukin-1 receptor-associated kinase 1 (Homo sapiens, UniProt P51617); format: functional;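 also: IRAK1 tested as one member of a kinome panel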
[7] = biological target: Mitogen-activated protein kinase 9 (Homo sapiens, UniProt P45984); format: functional;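 also: value from a kinome panel profiling assay, MAPK9 panel entry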
Chain of Mitogen-activated protein kinase 9 (P45984 whole entry): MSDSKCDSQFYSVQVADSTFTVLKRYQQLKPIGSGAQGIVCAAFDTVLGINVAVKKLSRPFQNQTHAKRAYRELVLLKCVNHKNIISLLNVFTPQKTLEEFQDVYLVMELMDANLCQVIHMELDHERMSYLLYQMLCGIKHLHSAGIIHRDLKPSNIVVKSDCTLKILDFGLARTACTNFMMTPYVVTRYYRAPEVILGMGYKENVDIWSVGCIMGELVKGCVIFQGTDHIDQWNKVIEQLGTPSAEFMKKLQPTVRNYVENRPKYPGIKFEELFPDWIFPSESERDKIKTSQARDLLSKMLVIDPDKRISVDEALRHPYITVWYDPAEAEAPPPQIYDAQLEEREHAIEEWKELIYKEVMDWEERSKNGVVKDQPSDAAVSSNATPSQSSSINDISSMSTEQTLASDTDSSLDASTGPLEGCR

[8] = biological target: Non-receptor tyrosine-protein kinase TYK2 (Homo sapiens, UniProt P29597); format: functional
[9] = biological target: Dual specificity tyrosine-phosphorylation-regulated kinase 1B (Homo sapiens, UniProt Q9Y463); experiment: Navigating the Kinome. Panel member name: DYRK1B; format: functional
[10] = biological target: Vascular endothelial growth factor receptor 1 (Homo sapiens, UniProt P17948); format: functional;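 also: measured within a kinome-wide profiling panel, FLT1 as the panel member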
[11] = biological target: RAC-alpha serine/threonine-protein kinase (Homo sapiens, UniProt P31749); format: functional;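 also: AKT1 affinity measured as one member of a kinome-wide kinase profiling panel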
[12] = biological target: Calcium/calmodulin-dependent protein kinase type II subunit delta (Homo sapiens, UniProt Q13557); format: functional
[13] = biological target: Serine/threonine-protein kinase Chk2 (Homo sapiens, UniProt O96017); format: functional;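 also: CHEK2 entry within a kinome-wide screening panel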
[14] = biological target: 3-phosphoinositide-dependent protein kinase 1 (Homo sapiens, UniProt O15530); format: functional;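 also: value comes from the Navigating the Kinome panel, PDPK1 member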
[15] = biological target: MAP kinase-activated protein kinase 5 (Homo sapiens, UniProt Q8IW41); format: functional;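 also: measured as one member of a kinome panel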
[16] = biological target: Ribosomal protein S6 kinase alpha-5 (Homo sapiens, UniProt O75582); format: functional
Chain of Ribosomal protein S6 kinase alpha-5 (O75582 whole entry): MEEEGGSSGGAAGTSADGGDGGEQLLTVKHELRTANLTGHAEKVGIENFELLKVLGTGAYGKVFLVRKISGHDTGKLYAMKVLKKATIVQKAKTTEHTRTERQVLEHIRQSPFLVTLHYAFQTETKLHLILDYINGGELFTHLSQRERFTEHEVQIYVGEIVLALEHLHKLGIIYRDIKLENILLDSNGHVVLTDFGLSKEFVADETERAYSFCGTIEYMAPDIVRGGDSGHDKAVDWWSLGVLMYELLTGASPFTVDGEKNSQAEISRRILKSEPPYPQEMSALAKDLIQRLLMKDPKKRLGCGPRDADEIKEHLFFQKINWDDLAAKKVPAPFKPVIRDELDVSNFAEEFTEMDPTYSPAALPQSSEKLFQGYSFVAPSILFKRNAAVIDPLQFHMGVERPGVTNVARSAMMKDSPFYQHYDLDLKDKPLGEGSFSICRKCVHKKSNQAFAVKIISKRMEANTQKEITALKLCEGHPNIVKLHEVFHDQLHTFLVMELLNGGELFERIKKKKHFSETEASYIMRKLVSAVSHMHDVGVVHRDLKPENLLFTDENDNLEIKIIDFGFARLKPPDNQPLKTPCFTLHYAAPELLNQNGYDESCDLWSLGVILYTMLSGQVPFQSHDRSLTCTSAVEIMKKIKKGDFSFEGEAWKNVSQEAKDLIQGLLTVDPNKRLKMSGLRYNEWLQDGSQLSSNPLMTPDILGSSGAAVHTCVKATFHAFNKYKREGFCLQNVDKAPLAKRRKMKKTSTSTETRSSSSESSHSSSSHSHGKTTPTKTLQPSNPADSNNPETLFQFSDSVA

[17] = biological target: MAP kinase-interacting serine/threonine-protein kinase 2 (Homo sapiens, UniProt Q9HBH9); format: functional
Chain of MAP kinase-interacting serine/threonine-protein kinase 2 (Q9HBH9 whole entry): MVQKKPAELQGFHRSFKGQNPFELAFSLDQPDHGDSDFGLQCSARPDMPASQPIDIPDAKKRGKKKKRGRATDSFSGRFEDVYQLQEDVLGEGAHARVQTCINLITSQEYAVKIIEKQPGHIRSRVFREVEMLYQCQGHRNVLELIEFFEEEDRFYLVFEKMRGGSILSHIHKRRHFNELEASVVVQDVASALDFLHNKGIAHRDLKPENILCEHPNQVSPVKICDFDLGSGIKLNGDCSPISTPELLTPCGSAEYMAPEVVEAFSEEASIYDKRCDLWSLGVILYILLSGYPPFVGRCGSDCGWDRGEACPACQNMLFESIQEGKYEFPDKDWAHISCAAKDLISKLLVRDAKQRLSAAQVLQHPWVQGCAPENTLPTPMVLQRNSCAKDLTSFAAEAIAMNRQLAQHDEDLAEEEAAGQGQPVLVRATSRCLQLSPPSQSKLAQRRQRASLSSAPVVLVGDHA

[18] = biological target: Serine/threonine-protein kinase PAK 1 (Homo sapiens, UniProt Q13153); format: functional
[19] = biological target: Cyclin-dependent kinase 2 (Homo sapiens, UniProt P24941); format: functional;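 also: CDK2 measured as one member of a broad kinome profiling panel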
[20] = biological target: Mitogen-activated protein kinase kinase kinase kinase 2 (Homo sapiens, UniProt Q12851); format: functional;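 also: measured as one member of a kinome-wide kinase panel, with MAP4K2 as the panel entry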
[21] = biological target: Serine/threonine-protein kinase DCLK1 (Homo sapiens, UniProt O15075); format: functional;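 also: affinity for DCLK1 (listed as DCAMKL1) measured as one member of a kinome-wide kinase profiling panel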
Chain of Serine/threonine-protein kinase DCLK1 (O15075 whole entry): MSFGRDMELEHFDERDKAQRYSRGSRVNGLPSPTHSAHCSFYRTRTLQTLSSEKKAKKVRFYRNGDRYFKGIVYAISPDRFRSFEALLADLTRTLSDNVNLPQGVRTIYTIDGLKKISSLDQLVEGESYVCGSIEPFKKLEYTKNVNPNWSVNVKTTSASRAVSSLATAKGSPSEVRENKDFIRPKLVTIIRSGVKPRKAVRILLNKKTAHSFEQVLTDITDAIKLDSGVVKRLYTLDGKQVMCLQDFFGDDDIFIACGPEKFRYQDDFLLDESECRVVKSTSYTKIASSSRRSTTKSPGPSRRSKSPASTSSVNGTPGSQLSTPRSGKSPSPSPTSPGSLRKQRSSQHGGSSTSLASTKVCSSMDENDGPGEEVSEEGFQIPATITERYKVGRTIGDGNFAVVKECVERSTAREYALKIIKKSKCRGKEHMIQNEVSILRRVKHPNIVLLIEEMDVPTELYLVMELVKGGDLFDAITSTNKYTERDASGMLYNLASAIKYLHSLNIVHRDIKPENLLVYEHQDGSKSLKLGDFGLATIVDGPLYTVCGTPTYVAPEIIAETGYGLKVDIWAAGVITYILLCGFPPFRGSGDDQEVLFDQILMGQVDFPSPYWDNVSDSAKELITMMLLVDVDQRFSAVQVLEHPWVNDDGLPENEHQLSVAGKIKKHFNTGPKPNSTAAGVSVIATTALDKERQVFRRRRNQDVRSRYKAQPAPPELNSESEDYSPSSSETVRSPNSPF

Insulin receptor = Insulin receptor (Homo sapiens, UniProt P06213); format: functional;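 also: insulin receptor kinase tested as one member of a kinome-wide kinase panel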
[22] = biological target: Protein kinase C theta type (Homo sapiens, UniProt Q04759); experiment: Navigating the Kinome. Panel member name: PRKCQ; format: functional
Chain of Protein kinase C theta type (Q04759 whole entry): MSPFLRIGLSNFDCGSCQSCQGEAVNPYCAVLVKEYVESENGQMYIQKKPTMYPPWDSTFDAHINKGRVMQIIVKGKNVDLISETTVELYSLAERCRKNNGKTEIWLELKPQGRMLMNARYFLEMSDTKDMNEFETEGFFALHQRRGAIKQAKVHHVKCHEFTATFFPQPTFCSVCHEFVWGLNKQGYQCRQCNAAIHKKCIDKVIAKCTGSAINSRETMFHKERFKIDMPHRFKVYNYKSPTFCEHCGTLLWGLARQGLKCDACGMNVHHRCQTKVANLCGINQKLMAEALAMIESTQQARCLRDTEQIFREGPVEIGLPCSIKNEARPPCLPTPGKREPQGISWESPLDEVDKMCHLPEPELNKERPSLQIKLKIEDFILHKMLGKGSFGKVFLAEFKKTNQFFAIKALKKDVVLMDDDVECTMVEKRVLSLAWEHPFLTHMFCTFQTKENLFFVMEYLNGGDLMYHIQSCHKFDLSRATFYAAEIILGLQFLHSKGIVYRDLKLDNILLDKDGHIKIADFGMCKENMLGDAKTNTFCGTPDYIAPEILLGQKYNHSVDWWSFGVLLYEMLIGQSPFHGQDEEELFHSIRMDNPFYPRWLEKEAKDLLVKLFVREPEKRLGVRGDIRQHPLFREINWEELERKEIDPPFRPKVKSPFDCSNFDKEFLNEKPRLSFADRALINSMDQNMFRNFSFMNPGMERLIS

[23] = biological target: Receptor tyrosine-protein kinase erbB-4 (Homo sapiens, UniProt Q15303); format: functional;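 also: ERBB4 member of a kinome-wide kinase profiling panel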
Chain of Receptor tyrosine-protein kinase erbB-4 (Q15303 whole entry): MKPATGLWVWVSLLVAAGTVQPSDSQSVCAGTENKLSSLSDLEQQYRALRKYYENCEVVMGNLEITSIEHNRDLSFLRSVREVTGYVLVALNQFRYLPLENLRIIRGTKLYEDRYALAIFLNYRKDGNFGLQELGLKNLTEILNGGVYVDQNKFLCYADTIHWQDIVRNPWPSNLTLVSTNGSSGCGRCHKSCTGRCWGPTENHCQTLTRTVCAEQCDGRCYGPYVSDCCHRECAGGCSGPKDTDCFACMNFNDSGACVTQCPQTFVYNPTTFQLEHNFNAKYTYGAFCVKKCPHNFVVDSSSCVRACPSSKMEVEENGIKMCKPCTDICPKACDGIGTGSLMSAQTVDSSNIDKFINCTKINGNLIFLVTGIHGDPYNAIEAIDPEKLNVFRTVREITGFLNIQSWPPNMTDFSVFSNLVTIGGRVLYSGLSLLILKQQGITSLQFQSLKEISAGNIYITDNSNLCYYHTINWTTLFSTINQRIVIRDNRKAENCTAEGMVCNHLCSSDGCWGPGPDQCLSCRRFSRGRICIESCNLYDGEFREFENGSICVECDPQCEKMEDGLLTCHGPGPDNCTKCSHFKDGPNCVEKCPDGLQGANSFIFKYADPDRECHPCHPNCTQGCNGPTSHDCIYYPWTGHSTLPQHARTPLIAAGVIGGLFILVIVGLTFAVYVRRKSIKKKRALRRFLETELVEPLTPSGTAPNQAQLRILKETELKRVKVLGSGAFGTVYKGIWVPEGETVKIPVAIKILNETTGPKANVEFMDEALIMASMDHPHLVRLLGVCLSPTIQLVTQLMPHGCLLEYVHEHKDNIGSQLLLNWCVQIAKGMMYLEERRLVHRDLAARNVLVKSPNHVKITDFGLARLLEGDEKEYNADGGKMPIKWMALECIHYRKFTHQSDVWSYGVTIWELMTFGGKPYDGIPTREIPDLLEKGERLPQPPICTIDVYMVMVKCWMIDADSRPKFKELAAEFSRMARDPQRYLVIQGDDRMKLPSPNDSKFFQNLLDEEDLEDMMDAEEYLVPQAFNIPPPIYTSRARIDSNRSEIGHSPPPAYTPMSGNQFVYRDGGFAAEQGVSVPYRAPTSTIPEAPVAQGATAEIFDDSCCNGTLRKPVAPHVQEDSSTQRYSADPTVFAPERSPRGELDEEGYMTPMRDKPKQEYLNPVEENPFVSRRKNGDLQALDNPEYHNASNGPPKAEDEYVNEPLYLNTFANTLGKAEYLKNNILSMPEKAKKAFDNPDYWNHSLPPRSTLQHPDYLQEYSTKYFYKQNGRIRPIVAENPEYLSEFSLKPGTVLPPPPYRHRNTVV

SMILES: Cc1c(NC(=O)C(C)OC(=O)c2ccc([N+](=O)[O-])s2)c(=O)n(-c2ccccc2)n1C (stereo unspecified)
- IC50 [1]: 7.32 µM (active)
- AC50 (Caspase-9): 41.3 µM (active)

SMILES: COc1cc(Br)c(C(=O)c2nccc3cc(OC)c(OC)cc23)cc1OC
- IC50 (Caspase-3): 23.9 µM (active)
- IC50 [2]: > 39.8 µM (not active)
- IC50 [3]: > 80 µM (inactive)

- Ki [4]: > 3.98 µM (inactive)
- Ki [5]: > 5.01 µM (inactive)
- Ki [6]: 7.94 µM (active)
- Ki [7]: > 3.98 µM (inactive)
- Ki [8]: > 2 µM (inactive)
- Ki [9]: 0.158 µM (active)
- Ki [10]: > 2 µM (inactive)
- Ki [11]: 1.26 µM (active)
- Ki [12]: 3.16 µM (active)
- Ki [13]: > 1.58 µM (inactive)
- Ki [14]: 0.631 µM (active)
- Ki [15]: > 1.58 µM (inactive)
- Ki [16]: 0.631 µM (active)
- Ki [17]: 2 µM (active)
- Ki [18]: > 10 µM (inactive)
- Ki [19]: 1 µM (active)
- Ki [20]: > 2 µM (inactive)
- Ki [21]: > 10 µM (inactive)
- Ki (Insulin receptor): > 5.01 µM (inactive)
- Ki [22]: 0.00794 µM (active)
- Ki [23]: > 3.98 µM (inactive)
SMILES: CC(N)C1CCC(C(=O)Nc2ccnc3[nH]ccc23)CC1 (stereo unspecified)
